Test results: patent US20090197949A1, “ANTITUMOR METHODS AND COMPOSITIONS COMPRISING SESQUITERPENE DERIVATIVES” (F.P.L. Pharma, Inc., priority 2001, published 2009)
Read-outs that look alike come from different tables or passages of the source.

What was measured:
Normal human fibroblasts = test: In vitro survival assay, resazurin reduction test, normal fibroblasts; format: cell-based; conditions: Fibroblast
Excerpt: (§1) Normal human fibroblasts were purchased from Biopredic International (Rennes, France). This frozen culture was obtained from a person abdominal surgical waste and the cells used in this work was from the 7th to the 12th passage of the culture. M4Beu and […], human melanoma cell lines, was established in the laboratory of Dr. J. F. Doré (Institut National de la Santé et de la Recherche Médicale-INSERM, Unit 218, Lyon, France) from metastatic biopsy specimens (Thomasset, N. et al.; British Journal of Cancer, 46, 58-66 (1982)). Murine colon carcinoma cell line CT-26 was obtained from Dr I. J. Fidler (University of Texas M.D. Anderson Cancer Center, Houston). Breast cancer adenocarcinoma MCF-7 and MDA-MB-231, prostatic adenocarcinoma PC-3, ovary adenocarcinoma SK-OV-3, lung carcinoma A-549, colon adenocarcinoma DLD-1, human cell lines and melanoma 1B16 and fibroblast L-929 murine cell lines were purchased from American Type of Culture Collection (ATCC) or the European Collection of Cell Cultures (ECACC; Salisbury, United-Kingdom). […] The effect of essential oils and compounds of oil on the proliferation of tumour cells was assessed using resazurin reduction test. […] The plates were incubated 1 h at 37° C. in an humidified atmosphere with 5% of CO2 for fluorescence development by living cells. Fluorescence was then measured on the automated 96-well plate reader Fluoroskan Ascent FLTM (Labsystems) using an excitation wavelength of 530 nm and an emission one of 590 nm. […] The essentials oil of jack pine (Pinus banksiana or Pinus divaricata), eastern white cedar (Thuya occidentalis), balsam fir (Abies balsamea), were evaluated for their cytotoxic activity against various tumor cell lines (Table 1). The cell growth inhibition were measured by the fluorescence induced by the metabolic transformation of resazurin in resorufin. […]

tumor cell lines = test: In vitro cytotoxic/antitumoral activity against tumor cell lines (panel statement); format: cell-based
Protocol: Cells were plated at a density of 5×10^3 cells per well in 96-well microplates (Nunclon™, Nunc) in 100 μl of culture medium and were allowed to adhere for 16 h before treatment. Then, 100 μl of culture medium containing essential oil of Pinus divaricata, essential oil of Thuya occidentalis, essential oil of Abies balsamea, α-humulene (Sigma-Aldrich); isocaryophyllene (Sigma-Aldrich) were added and incubated at 37° C. for 48 h. All compounds were dissolved in ethanol and the final concentration of ethanol in the culture medium was maintained at 0.5% (v/v). The effect of essential oils and compounds of oil on the proliferation of tumour cells was assessed using resazurin reduction test.
The resazurin reduction test (RRT) was carried out according to the protocol described here. Briefly, plates were rinsed by 200 μl PBS (37° C., Gibco) at 37° C. using an automatic microplate washer (Cell Wash™, Labsystems, Helsinki, Finland) and emptied by overturning on absorbent toweling. […] The plates were incubated 1 h at 37° C. in an humidified atmosphere with 5% of CO2 for fluorescence development by living cells. Fluorescence was then measured on the automated 96-well plate reader Fluoroskan Ascent FL™ (Labsystems) using an excitation wavelength of 530 nm and an emission one of 590 nm.

[1] = tested on: DLD-1 human colon adenocarcinoma; test: cells; format: cell-based
Excerpt: (§2) Normal human fibroblasts were purchased from Biopredic International (Rennes, France). This frozen culture was obtained from a person abdominal surgical waste and the cells used in this work was from the 7th to the 12th passage of the culture. M4Beu and […], human melanoma cell lines, was established in the laboratory of Dr. J. F. Doré (Institut National de la Santé et de la Recherche Médicale-INSERM, Unit 218, Lyon, France) from metastatic biopsy specimens (Thomasset, N. et al.; British Journal of Cancer, 46, 58-66 (1982)). Murine colon carcinoma cell line CT-26 was obtained from Dr I. J. Fidler (University of Texas M.D. Anderson Cancer Center, Houston). Breast cancer adenocarcinoma MCF-7 and MDA-MB-231, prostatic adenocarcinoma PC-3, ovary adenocarcinoma SK-OV-3, lung carcinoma A-549, colon adenocarcinoma DLD-1, human cell lines and melanoma 1B16 and fibroblast L-929 murine cell lines were purchased from American Type of Culture Collection (ATCC) or the European Collection of Cell Cultures (ECACC; Salisbury, United-Kingdom). Stock cell cultures were maintained as monolayers in 75-cm^2 culture flasks in GlutamaxTM Eagle's minimum essential medium with Earle's salts (Gibco-BRL, Paisley, Scotland) supplemented with 10% foetal calf serum (Sigma), and 5 ml of a 100× solution of vitamins (Gibco), 5 ml of 100 mM sodium pyruvate (Gibco), 5 ml of 100× non-essential amino acids (Gibco) and 2 mg of gentamicin base (Gibco). Cells were grown in a humidified 37° C. incubator containing 5% CO2. Cells were plated at a density of 5×10^3 cells per well in 96-well microplates (NunclonTM, Nunc) in 100 μl of culture medium and were allowed to adhere for 16 h before treatment. Then, 100 μl of culture medium containing essential oil of Pinus divaricata, essential oil of Thuya occidentalis, essential oil of Abies balsamea, α-humulene (Sigma-Aldrich); isocaryophyllene (Sigma-Aldrich) were added and incubated at 37° C. for 48 h. All compounds were dissolved in ethanol and the final concentration of ethanol in the culture medium was maintained at 0.5% (v/v). The effect of essential oils and compounds of oil on the proliferation of tumour cells was assessed using resazurin reduction test. Resazurin was recently identified as the alamar Blue dye (O'Brien, J. et al.; European Journal of Biochemistry, 267, 5421-6, (2000)). The resazurin reduction test (RRT) was carried out according to the protocol described here. Briefly, plates were rinsed by 200 μl PBS (37° C., Gibco) at 37° C. using an automatic microplate washer (Cell WashTM, Labsystems, Helsinki, Finland) and emptied by overturning on absorbent toweling. Then, 150 μl of a 25 μg/ml solution of resazurin in RPMI 1640 without Phenol red was added in each well using an automatic microvolume dispenser (Multidrop 384TM Labsystems). The plates were incubated 1 h at 37° C. in an humidified atmosphere with 5% of CO2 for fluorescence development by living cells. Fluorescence was then measured on the automated 96-well plate reader Fluoroskan Ascent FLTM (Labsystems) using an excitation wavelength of 530 nm and an emission one of 590 nm. The fluorescence is proportional to the number of living cells in the well and IC50 (drug concentration required to inhibit cell proliferation by 50%) was calculated from the curve of concentration-dependent survival percentage, defined as the fluorescence in experimental wells as a percentage of that in control wells, with blank values subtracted. The essentials oil of jack pine (Pinus banksiana or Pinus divaricata), eastern white cedar (Thuya occidentalis), balsam fir (Abies balsamea), were evaluated for their cytotoxic activity against various tumor cell lines (Table 1). The cell growth inhibition were measured by the fluorescence induced by the metabolic transformation of resazurin in resorufin. The fluorescence is proportional to living cells and allow to evaluate the concentration inhibiting 50% of cell growth (IC50).

M4BEU human melanoma = test: cells; format: cell-based
Excerpt: as §2

[2] = tested on: MCF-7 human breast adenocarcinoma; test: cells; format: cell-based
Excerpt: as §2

[3] = tested on: PC-3 human prostatic adenocarcinoma; test: cells; format: cell-based
Excerpt: as §2

[4] = tested on: A-549 human lung carcinoma; test: cells; format: cell-based
Excerpt: as §2

[5] = tested on: L-929 mouse subcutaneous connective tissue (fibroblast); test: In vitro survival assay, resazurin reduction test, L-929; format: cell-based; conditions: L929, L-929, 48 h
Excerpt: as §1, with “Houston).” for “Houston). Breast cancer adenocarcinoma MCF-7 and MDA-MB-231, prostatic adenocarcinoma PC-3, ovary adenocarcinoma SK-OV-3, lung carcinoma A-549, colon adenocarcinoma DLD-1, human cell lines and melanoma 1B16 and fibroblast L-929 murine cell lines were purchased from American Type of Culture Collection (ATCC) or the European Collection of Cell Cultures (ECACC; Salisbury, United-Kingdom).”, “1).” for “1). The cell growth inhibition were measured by the fluorescence induced by the metabolic transformation of resazurin in resorufin.”

[6] = tested on: CT-26 mouse colon carcinoma; test: In vitro survival assay, resazurin reduction test, CT-26; format: cell-based; conditions: CT26, CT-26, 48 h
Excerpt: as §1, with “Houston).” for “Houston). Breast cancer adenocarcinoma MCF-7 and MDA-MB-231, prostatic adenocarcinoma PC-3, ovary adenocarcinoma SK-OV-3, lung carcinoma A-549, colon adenocarcinoma DLD-1, human cell lines and melanoma 1B16 and fibroblast L-929 murine cell lines were purchased from American Type of Culture Collection (ATCC) or the European Collection of Cell Cultures (ECACC; Salisbury, United-Kingdom).”, “1).” for “1). The cell growth inhibition were measured by the fluorescence induced by the metabolic transformation of resazurin in resorufin.”

[7] = tested on: glutathione-S-transferase; conditions: Zheng et al. 1992; cited from earlier work
[8] = tested on: about ten tumor cell lines; conditions: Kaneda et al. 1992; cited from earlier work
[9] = tested on: gastric mucosal injuries induced by necrotizing agents; conditions: necrotizing agents such as absolute ethanol and HCl; Tambe et al. 1996; cited from earlier work
[10] = MCF7, MCF-7, 48 h, read-out: IC50
[11] = A549, A-549, 48 h, read-out: IC50

Row | Structure (SMILES) | IC50 (Normal human fibroblasts; 48 h, read-out: IC50) | IC50 (Normal human fibroblasts; fibroblastic normal cell, Table 2, read-out: activity against fibroblastic normal cell) | IC50 (tumor cell lines; all tumor cells tested, Table 2) | IC50 ([1]; DLD-1, 48 h, read-out: IC50) | IC50 (M4BEU human melanoma; 48 h, read-out: IC50) | IC50 [2, 10] | IC50 ([3]; PC-3, 48 h, read-out: IC50) | IC50 [4, 11] | IC50 [5] | IC50 [6] | glutathione-S-transferase activity in vivo [7] | IC50 ([1]; DLD-1, read-out: cytotoxic activity) | IC50 (M4BEU human melanoma; read-out: cytotoxic activity) | IC50 ([2]; MCF7, read-out: cytotoxic activity) | IC50 ([3]; read-out: cytotoxic activity) | IC50 ([4]; A549, read-out: cytotoxic activity) | antitumoral activity in vitro, evaluated by the Applicants (tumor cell lines) | activity in vitro against about ten tumor cell lines [8] | gastric cytoprotection effect [9]
1 | C=C1CCC=C(C)CC[C@H]2[C@@H]1CC2(C)C (relative stereo) [Isocaryophyllene, cis-4,11,11-Trimethyl-8-methylenebicyclo[7.2.0]undec-4-ene] | 124 ± 15 µM | > 100 µM | < 100 µM | 124 ± 17 µM | 43 ± 3 µM | 84 ± 6 µM | 87 ± 8 µM | 59 ± 4 µM | 34 ± 0.8 µM | 46 ± 1 µM |  |  |  |  |  |  |  |  | 
2 | CC1=CCCC(C)=CCC(C)(C)C=CC1 [α-humulene, 2,6,6,9-Tetramethyl-1,4,8-cycloundecatriene] | 85 ± 5 µM |  |  | 71 ± 2 µM | 55 ± 2 µM | 73 ± 2 µM | 73 ± 2 µM | 68 ± 2 µM | 50.2 ± 0.3 µM | 53 ± 1 µM | increasing of gluthatione-S-transferase activity | < 100 µM | < 100 µM | < 100 µM | < 100 µM | < 100 µM |  |  | 
3 | C=C1CC[C@H]2O[C@]2(C)CC[C@@H]2[C@@H]1CC2(C)C [β-caryophyllene oxide] |  |  |  |  |  |  |  |  |  |  | increasing of gluthatione-S-transferase activity |  |  |  |  |  | no significant bioactivity | inactive | 
4 | C=C1CC/C=C(\C)CC[C@@H]2[C@@H]1CC2(C)C [β-caryophyllene] |  |  |  |  |  |  |  |  |  |  | increasing of gluthatione-S-transferase activity |  |  |  |  |  | no significant bioactivity |  | inhibition of gastric mucosal injuries
